TGI and GI50 data for 10 compounds are collected here from PubChem BioAssay (NCI).

Assay in all cases: DTP human tumour cell line panel, 48 h
The test system of experiment [1] is NCI-H23 lung.
Experiment [2] has as its system M14 melanoma.
Experiment [3] has as its system SNB-19 CNS.
For experiment [4], the system named is U251 CNS.
In experiment [5] the test system is OVCAR-4 ovarian.
The subject of experiment [6] is HT29 colon.
Experiment [7] deals with SN12C renal.
Experiment [8] relates to RPMI-8226 leukemia.
Experiment [9] has as its system SK-MEL-28 melanoma.
Experiment [10] has as its system NCI-H226 lung.

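The compound was tested at five concentrations on cells cultured in 96-well plates, with a 48-hour exposure period. The concentration for 50% growth inhibition is given as GI50. Definition used: TGI = concentration required for complete inhibition of growth.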

For `Cc1ccc2[nH]c(O)c(N=Nc3ccccc3[N+](=O)[O-])c2c1`, the TGI was 77.1 µM in [1]; more than 100 µM in experiment [2]; more than 81.1 µM in experiment [3]; 18.6 µM in experiment [4]; 6.18 µM in [5]; more than 100 µM in experiment [6]. Besides, the TGI was more than 100 µM in experiment [7], more than 100 µM in experiment [8], more than 100 µM in experiment [9] and 47.5 µM in experiment [10].
Regarding `C#CCOC(=O)/C=C/C(=O)Oc1ccc2c(C)cc(=O)oc2c1`, the GI50 in [1], in [2], in experiment [3], in experiment [4], in [5] and in [6] was more than 100 µM throughout. Further, the GI50 in experiment [7], in experiment [8], in experiment [9] and in experiment [10] was more than 100 µM each time. Further, the TGI in experiment [1], in experiment [2], in experiment [3], in [4], in [5] and in experiment [6] was more than 100 µM in each case. Moreover, the TGI in experiment [7], in experiment [8], in [9] and in experiment [10] was more than 100 µM each time.
Consider `Cc1ccc2[nH]c(C(=O)NN3C(=O)C(C)SC34CCC(C)CC4)c(-c3ccccc3)c2c1` (stereo not given), for which the GI50 in experiment [1] was 15.2 µM; in [2], 18.2 µM; in [3], 22.7 µM; in [4], 15.7 µM; in experiment [5], 14.8 µM; in experiment [6], 13.1 µM. In addition, the GI50 in experiment [7] was 13 µM; in experiment [8], 11.5 µM; in experiment [9], 17.8 µM; in experiment [10] it was 17.3 µM. Further, the TGI in experiment [1] came out at 32 µM; in experiment [2], 39 µM; in experiment [3], 62.4 µM; in [4], 34.1 µM; in [5], 34.7 µM; in experiment [6], 29.3 µM. Further, the TGI came out at 28 µM in experiment [7], 52.6 µM in [8], 35.9 µM in [9] and 35.5 µM in experiment [10].
On to `Cc1cccc(N=Cc2ccc(N(CCC#N)S(=O)(=O)c3ccccc3)cc2C)c1`, for which the TGI in experiment [1], in [2], in [3], in experiment [4], in [5] and in experiment [6] was more than 100 µM throughout. Besides, the TGI in experiment [7], in experiment [8], in [9] and in experiment [10] was more than 100 µM in each case.
Turning to `O=S1(=O)c2cc(S(=O)(=O)n3ccnc3)ccc2NC2=NCCCN21`, the TGI in [1] was more than 100 µM; in [2], more than 100 µM; in experiment [3], more than 100 µM; in [4], 41.5 µM; in [5], more than 100 µM; in [6], 46.3 µM. The TGI was more than 100 µM in experiment [7], more than 100 µM in experiment [8], more than 100 µM in experiment [9] and 46.7 µM in experiment [10].
With `C[N+](C)(C)C1CC([N+](C)(C)C)C2c3ccccc3C21` (stereo not given), the TGI in [1], in [2], in [3], in experiment [4], in [5] and in [6] was more than 100 µM throughout. In addition, the total growth inhibition concentration (TGI) in [7], in experiment [8], in [9] and in experiment [10] was more than 100 µM in each case.
In the case of `CN(C)CCN(C)C(=O)c1cccc2cccc(C(=O)O)c12`, the TGI in experiment [1], in experiment [2], in experiment [3], in experiment [4], in experiment [5] and in [6] was more than 100 µM each time. In addition, the TGI in experiment [7], in experiment [8], in [9] and in experiment [10] was more than 100 µM throughout.
For `O=c1cc(-c2ccccc2)oc2c1ccc1ccccc12`, the GI50 is 32.6 µM in [1]; 61.1 µM in experiment [2]; 6.1 µM in [3]; 17.1 µM in experiment [4]; 21.2 µM in experiment [5]; 25.6 µM in experiment [6]. In addition, the GI50 was 19.6 µM in experiment [7], 21.7 µM in experiment [8], 29.3 µM in experiment [9] and 18.9 µM in experiment [10]. Also, the TGI in [1], in experiment [2], in experiment [3], in experiment [4], in experiment [5] and in experiment [6] was more than 100 µM in each case. For the same compound, the TGI in experiment [7] is more than 100 µM; in [8] it was 70.2 µM; in experiment [9], more than 100 µM; in experiment [10], 59.5 µM.
With `NNc1nc2ccccc2o1`, the TGI in experiment [1], in experiment [2], in experiment [3], in [4], in [5] and in [6] was more than 100 µM throughout. The TGI in [7], in experiment [8], in experiment [9] and in experiment [10] was more than 100 µM throughout.
For `Fc1ccc(-c2ncn(CCCN3CCOCC3)c2-c2ccncc2)cc1`, the GI50 in [1], in experiment [2], in experiment [3], in [4], in experiment [5] and in experiment [6] was more than 25 µM throughout. For the same compound, the GI50 in experiment [7], in experiment [8], in [9] and in experiment [10] was more than 25 µM each time. The TGI in experiment [1], in experiment [2], in experiment [3], in experiment [4], in experiment [5] and in experiment [6] was more than 25 µM each time. The TGI in experiment [7], in experiment [8], in [9] and in experiment [10] was more than 25 µM in each case.
